Data: US7173014B2, “HIV-specific synthetic oligonucleotides and methods of their use” (priority 1997, dated 2007)

Legend:
HIV-1 (IIIB, RF and SK1) = assay: XTT-based anti-HIV assay, laboratory strains of HIV-1; format: cell-based
Text: (§1) The initial experiment performed involved evaluation of Oligos 12, 32, and 41 against three laboratory strains of HIV-1 (IIIB, RF and SK1) and one strain of HIV-2 (ROD) in parallel with the positive control compound ddC in the XTT-based anti-HIV assay. All these oligonucleotides are active against both HIV-1 and HIV-2.
CEM-SS sells (AIDS Research and Reference Reagent Program, NIH) or other established human T cell lines used in these experiments were passaged in T-150 flasks for use in the assay. On the day preceding the assay, the cells were split 1:2 to assure they would be in an exponential growth phase at time of infection. On the day of assay the cells were washed twice with tissue culture medium and resuspended in fresh tissue cultures medium. Total cell and viability counting was performed using a hemacytometer and trypan blue dye exclusion. Cell viability was greater than 95% for the cells to be utilized in the assay. The cells were pelleted and resuspended at 2.5×10^4 cells per ml in tissue culture medium. […]
A pretitered aliquot of virus was removed from the freezer −80° C.) and allowed to thaw slowly to room temperature in a biological safety cabinet. The virus was resuspended and diluted into tissue culture medium such that the amount of virus added to each well in a volume of 50 μl will be the amount determined to give complete cell killing at 6 days post-infection. […]
After 6 days of incubation at 37° C. in a 5% CO2 incubator, the test plates were analyzed by staining with the tetrazolium dye XTT. XTT-tetrazolium is metabolized by the mitochondrial enzymes of metabolically active cells to a soluble formazan product, allowing the rapid quantitative analysis of the inhibition of HIV-induced cell killing by anti-HIV test substances. […]
XTT solution was prepared daily as a stock of 1 mg/ml in PBS. […] Adhesive plate sealers were used in place of the lids, the sealed plate was inverted several times to mix the soluble formazan product and the plate was read spectrophotometrically at A450 nm with a Molecular Devices Vmax plate reader.

HIV-2 (ROD) = assay: XTT-based anti-HIV assay, HIV-2; format: cell-based; settings: XTT assay
Text: as §1
CEM-SS sells (AIDS Research and Reference Reagent Program, NIH) or other established human T cell lines used in these experiments were passaged in T-150 flasks for use in the assay. On the day preceding the assay, the cells were split 1:2 to assure they would be in an exponential growth phase at time of infection. On the day of assay the cells were washed twice with tissue culture medium and resuspended in fresh tissue cultures medium. Total cell and viability counting was performed using a hemacytometer and trypan blue dye exclusion. Cell viability was greater than 95% for the cells to be utilized in the assay. The cells were pelleted and resuspended at 2.5×10^4 cells per ml in tissue culture medium. Cells were added to the drug-containing plates in a volume of 50 μl.
A pretitered aliquot of virus was removed from the freezer −80° C.) and allowed to thaw slowly to room temperature in a biological safety cabinet. The virus was resuspended and diluted into tissue culture medium such that the amount of virus added to each well in a volume of 50 μl will be the amount determined to give complete cell killing at 6 days post-infection. In general the virus pools produced with the IIIB isolate of HIV required the addition of 5 μl of virus per well.
Each plate contained cell control wells (cells only), virus control wells (cells plus virus), drug toxicity control wells (cells plus drug only), drug colorimetric control wells (drug only) as well as experimental wells (drug plus cells plus virus).
After 6 days of incubation at 37° C. in a 5% CO2 incubator, the test plates were analyzed by staining with the tetrazolium dye XTT. XTT-tetrazolium is metabolized by the mitochondrial enzymes of metabolically active cells to a soluble formazan product, allowing the rapid quantitative analysis of the inhibition of HIV-induced cell killing by anti-HIV test substances. On day 6 post-infection plates were removed from the incubator and observed. The use of round bottom microtiter plates allows rapid macroscopic analysis of the activity of a given test compound by the evaluation of pellet size. The results of the macroscopic observations were confirmed and enhanced by further microscopic analysis.
XTT solution was prepared daily as a stock of 1 mg/ml in PBS. Phenazine methosulfate (PMS) solution was prepared at 15 mg/ml in PBS and stored in the dark at −20° C. XTT/PMS stock was prepared immediately before use by diluting the PMS 1:100 into PBS and adding 40 μl per ml of XTT solution. Fifty microliters of XTT/PMS was added to each well of the plate and the plate was incubated for an additional 4 hours at 37° C. Adhesive plate sealers were used in place of the lids, the sealed plate was inverted several times to mix the soluble formazan product and the plate was read spectrophotometrically at A450 nm with a Molecular Devices Vmax plate reader.

[1] = system: monocyte-macrophage-tropic strains BaL and ADA; assay: Anti-HIV assay in fresh human monocyte-macrophages; format: cell-based, HIV-1
Procedure: In addition to these T-tropic strains, the activity of the compounds was also evaluated against the monocyte-macrophage strains BaL and ADA. Oligos 12 and 32 according to the invention, as well as Oligo 41 are active against low passage clinical T-tropic strains of HIV-1. The activity of the compounds varies from strain to strain. The compounds were not active against the monocyte-macrophage-tropic strains BaL and ADA.
For isolation of adherent cells, 3×10^6 non-PHA stimulated peripheral blood cells were resuspended in Hanks buffered saline (with calcium and magnesium) supplemented with 10% human AB serum. The cells were placed in a 24-well microtiter plate at 37° C. for 2 hours. Non-adherent cells were removed by vigorously washing six times. The adherent cells were cultured for 7 days in RPMI 1640 tissue culture medium with 15% fetal bovine serum. The cultures were carefully monitored for confluency during this incubation period. Infection of the cells was performed with the monocytotropic HIV-1 strains BaL or ADA and the matched pair of AZT-sensitive and AZT-resistant virus isolates. Each of these virus isolates was obtained from the NIAID AIDS Research and Reference Reagent Program. High titer pools of each of these viruses have been harvested from infected cultures of peripheral blood adherent cells and frozen in 1.0 ml aliquots at −80° C. Monocyte-macrophage monolayers were infected at an MOI of 0.1. Compounds to be evaluated in the monocyte-macrophage assay are added to the monolayers shortly before infection in order to maximize the potential for identifying active compounds.
At 2 days post-infection, the medium was decanted and the cultures washed twice with complete medium in order to remove excess virus. […] Control curves are generated in each assay to accurately quantify the amount of capsid protein in each sample. Data was obtained by spectrophotometric analysis at 450 nm using a plate reader (Molecular Devices Vmax). P24 concentrations were calculated from the optical density values by use of the Molecular Device software package Soft Max.

[2] = system: fresh human peripheral blood mononuclear cells; assay: Toxicity in uninfected and HIV-1 infected fresh human PBMC (XTT, MTT, trypan blue, tritiated thymidine); format: cell-based
Procedure: In yet another experiment, the toxicity of Oligo 41 was evaluated in uninfected and HIV-1 infected fresh human peripheral blood mononuclear cells, using a variety of quantitative endpoints. Toxicity was evaluated using the tetrazolium dyes XTT or MTT, trypan blue cell and cell viability counting and the incorporation of tritiated thymidine. Two replicate assays were performed. In the first assay, Oligo 41 was used at a high test concentration of 50 μg/ml and toxicity was evaluated on day 7. […] A second assay was performed to further evaluate toxicity at higher compound concentration and with longer exposure to the compound.
For the PBL assay, PHA-P stimulated cells from at least two normal donors were pooled, set in fresh medium at 2×10^6/ml, and plated in the interior wells of a 96 well round bottom microplate at 50 μL/well. Test drug dilutions were prepared at a 2× concentration in microtiter tubes, and 100 μl of each concentration was placed in appropriate wells in a standard format. Fifty microliters of a predetermined dilution of virus stock was placed in each test well. […]
Tritiated thymidine incorporation was measured in parallel cultures at day 7. […] The filters were dried, placed in a scintillation vial with 1 ml of scintillation cocktail and incorporated radioactivity was quantified on a liquid scintillation counter (e.g., Packard Tri-Carb 1900 TR450).

Oligo 41: oligonucleotide having SEQ ID NO:6; sequence not printed, not listed in TABLE 2 (UCGCACCCATCTCTCTCCUUC; chemistry not given here)
activity against HIV-1 (HIV-1 (IIIB, RF and SK1)): active | level of activity against the HIV-2 strain ROD (HIV-2 (ROD); compared with the HIV-1 strains): enhanced level of activity | activity against HIV-2 (HIV-2 (ROD); strain ROD): active | activity against monocyte-macrophage-tropic strains BaL and ADA [1]: not active | toxicity ([2]; high test concentration 50 μg/ml, day 7, any quantitative endpoint): No toxicity was detected | toxicity ([2]; high test concentration 150 μg/ml, exposure extended to 14 days): no toxicity was detected
